What was measured:
[1] = system: pig waste; assay: BOD and TSS of pig waste samples treated with fatty acids and combinations (test duration not given); parameters: BOD reduction / TSS reduction: concentration or dose not given beside the values; settings: treated pig waste sample
Experimental: A test was performed to determine the relative performance of various additives on the bioremediation or degradation of wastes suspended in water. Measurements of the “biological oxygen demand” (BOD) and “total suspended solids” (TSS) were taken as representative of the progress of the microbial growth and effectiveness of the degradation brought about by the microbes.
Approximately five pounds of pig waste was collected from a feedlot and diluted in five gallons of deionized water. The mixture was allowed to sit for 24 hours to insure that the waste formed a uniform mixture. Five hundred milliliters (500 ml) of the aqueous waste mixture was added to each of 13 two-liter glass bottles that were closed with Teflon lined caps. Ammonium hydroxide was added to each container for a final concentration of 2000 ppm.
The samples were diluted with water 2:1 and filtered to remove large particulate matter. Various fatty acids and combinations of fatty acids were added to each bottle and the bottles were placed in a tumbler at 25 degrees Celsius. Seven of the bottles were used in a seven-day test and six of the bottles were used in a twelve-day test. Standard EPA test methods were used for all test measurements.
BOD (biological oxygen demand) and TSS (total suspended solids) were measured on each sample.

[2] = system: pig waste; assay: Seven-day test: bioremediation/degradation of pig waste suspended in water with fatty acid additives; settings: 0.1 g fatty acid (0.5 g coated nutrient) per bottle of aqueous pig waste mixture, 2000 ppm ammonium hydroxide, 25 degrees Celsius
Experimental: A test was performed to determine the relative performance of various additives on the bioremediation or degradation of wastes suspended in water. Measurements of the “biological oxygen demand” (BOD) and “total suspended solids” (TSS) were taken as representative of the progress of the microbial growth and effectiveness of the degradation brought about by the microbes. Approximately five pounds of pig waste was collected from a feedlot and diluted in five gallons of deionized water. The mixture was allowed to sit for 24 hours to insure that the waste formed a uniform mixture. Five hundred milliliters (500 ml) of the aqueous waste mixture was added to each of 13 two-liter glass bottles that were closed with Teflon lined caps. Ammonium hydroxide was added to each container for a final concentration of 2000 ppm. The samples were diluted with water 2:1 and filtered to remove large particulate matter. Various fatty acids and combinations of fatty acids were added to each bottle and the bottles were placed in a tumbler at 25 degrees Celsius. Seven of the bottles were used in a seven-day test and six of the bottles were used in a twelve-day test. Standard EPA test methods were used for all test measurements.

| Structure (SMILES) | BOD levels [1] | BOD reduction [1] | TSS levels [1] | TSS reduction [1] | TSS (total suspended solids) [2] |
| --- | --- | --- | --- | --- | --- |
| CCCCC/C=C\C/C=C\CCCCCCCC(=O)O [Linoleic, linoleic acid] | 6102 ppm | 12.2% | 439 ppm | 13.3% | 15,780 ppm |
| CCCCCCCCCCCC(=O)O [Lauric] | – | – | – | – | 16,040 ppm |
| CCCCCCCCCCCCCCCCCC(=O)O [Strearic, stearic acid] | 6660 ppm | 9.5% | 455 ppm | 10.0% | 16,080 ppm |
| CCCCCCCC/C=C\CCCCCCCC(=O)O [Oleic, oleic acid] | 6050 ppm | 13.0% | 407 ppm | 19.6% | 15,600 ppm |

Source: patent US20050180944A1, “In situ remediation of waste in farm animal bedding substrates” (priority 2004, published 2005)
